In US8741944B2, “Anti-infective agents against intracellular pathogens” (priority 2007, dated 2014):

How the values were obtained:
[1] = system: OVCAR-5 (Ovarian Cancer); assay: NCI DTP tumor cell line screen (SRB), OVCAR-5
Experimental: (§1) For a typical screening experiment, cells are inoculated into 96 well microtiter plates in 100 μL at plating densities ranging from 5,000 to 40,000 cells/well depending on the doubling time of individual cell lines. After cell inoculation, the microtiter plates are incubated at 37° C., 5% CO2, 95% air and 100% relative humidity for 24 h prior to addition of experimental drugs.
(§2) After 24 h, two plates of each cell line are fixed in situ with TCA, to represent a measurement of the cell population for each cell line at the time of drug addition (Tz). Experimental drugs are solubilized in dimethyl sulfoxide at 400-fold the desired final maximum test concentration and stored frozen prior to use. At the time of drug addition, an aliquot of frozen concentrate is thawed and diluted to twice the desired final maximum test concentration with complete medium containing 50 μg/ml gentamicin. Additional four, 10-fold or ½ log serial dilutions are made to provide a total of five drug concentrations plus control. Aliquots of 100 μl of these different drug dilutions are added to the appropriate microtiter wells already containing 100 μl of medium, resulting in the required final drug concentrations.
(§3) Following drug addition, the plates are incubated for an additional 48 h at 37° C., 5% CO2, 95% air, and 100% relative humidity. For adherent cells, the assay is terminated by the addition of cold TCA. Cells are fixed in situ by the gentle addition of 50 μl of cold 50% (w/v) TCA (final concentration, 10% TCA) and incubated for 60 minutes at 4° C. The supernatant is discarded, and the plates are washed five times with tap water and air dried. Sulforhodamine B (SRB) solution (1001) at 0.4% (w/v) in 1% acetic acid is added to each well, and plates are incubated for 10 minutes at room temperature. After staining, unbound dye is removed by washing five times with 1% acetic acid and the plates are air dried. Bound stain is subsequently solubilized with 10 mM trizma base, and the absorbance is read on an automated plate reader at a wavelength of 515 nm. For suspension cells, the methodology is the same except that the assay is terminated by fixing settled cells at the bottom of the wells by gently adding 50 μl of 80% TCA (final concentration, 16% TCA). Using the seven absorbance measurements [time zero, (Tz), control growth, (C), and test growth in the presence of drug at the five concentration levels (Ti)], the percentage growth is calculated at each of the drug concentrations levels. Percentage growth inhibition is calculated as: [(Ti−Tz)/(C−Tz)]×100 for concentrations for which Ti>/=Tz [(Ti−Tz)/Tz]×100 for concentrations for which Ti<Tz
(§4) Three dose response parameters are calculated for each experimental agent. […] The drug concentration resulting in total growth inhibition (TGI) is calculated from Ti=Tz. […] Values are calculated for each of these three parameters if the level of activity is reached; however, if the effect is not reached or is exceeded, the value for that parameter is expressed as greater or less than the maximum or minimum concentration tested.

[2] = system: M14 (Melanoma); assay: NCI DTP tumor cell line screen (SRB), M14
Experimental: as §1, §2, §3, §4

[3] = system: SK-MEL-5 (Melanoma); assay: NCI DTP tumor cell line screen (SRB), SK-MEL-5
Experimental: as §1, §2, §3, §4

[4] = system: A498 (Renal Cancer); assay: NCI DTP tumor cell line screen (SRB), A498
Experimental: as §1, §2, §3, §4

[5] = system: UACC-62 (Melanoma); assay: NCI DTP tumor cell line screen (SRB), UACC-62
Experimental: as §1, §2, §3, §4

[6] = system: SK-OV-3 (Ovarian Cancer); assay: NCI DTP tumor cell line screen (SRB), SK-OV-3
Experimental: as §1, §2, §3, §4

[7] = system: MCF7 (Breast Cancer); assay: NCI DTP tumor cell line screen (SRB), MCF7; details: MCF7
Experimental: as §1, §2, §3, §4

[8] = system: HT29 (Colon Cancer); assay: NCI DTP tumor cell line screen (SRB), HT29
Experimental: as §1, §2, §3, §4

SMILES: NCC(=O)Nc1ccc(-n2nc(C(F)(F)F)cc2-c2ccc3c(ccc4ccccc43)c2)cc1 [Compound 70, 2-Amino-N-{4-[5-(2-phenanthrenyl)-3-(trifluoromethyl)-1H-pyrazol-1-yl]-phenyl}-acetamide]
- Mean Optical Densities ([1]; Log10 Concentration −4.0): 0.149
- Mean Optical Densities ([1]; Log10 Concentration −5.0): 0.087
- Percent Growth ([1]; Log10 Concentration −5.0): −83%
- Mean Optical Densities ([1]; Log10 Concentration −6.0): 1.412
- Percent Growth ([1]; Log10 Concentration −6.0): 90%
- Mean Optical Densities ([1]; Log10 Concentration −7.0): 1.540
- Percent Growth ([1]; Log10 Concentration −7.0): 103%
- Mean Optical Densities ([1]; Log10 Concentration −8.0): 1.480
- Percent Growth ([1]; Log10 Concentration −8.0): 97%
- TGI [2]: 5.37E−06
- Mean Optical Densities ([2]; Log10 Concentration −4.0): 0.256
- Mean Optical Densities ([2]; Log10 Concentration −5.0): 0.211
- Percent Growth ([2]; Log10 Concentration −5.0): −33%
- Mean Optical Densities ([2]; Log10 Concentration −6.0): 0.916
- Percent Growth ([2]; Log10 Concentration −6.0): 90%
- Mean Optical Densities ([2]; Log10 Concentration −7.0): 0.974
- Percent Growth ([2]; Log10 Concentration −7.0): 98%
- Mean Optical Densities ([2]; Log10 Concentration −8.0): 0.975
- Percent Growth ([2]; Log10 Concentration −8.0): 98%
- TGI [3]: 3.02E−06
- Mean Optical Densities ([3]; Log10 Concentration −4.0): 0.364
- Mean Optical Densities ([3]; Log10 Concentration −5.0): 0.136
- Percent Growth ([3]; Log10 Concentration −5.0): −75%
- Mean Optical Densities ([3]; Log10 Concentration −6.0): 1.659
- Percent Growth ([3]; Log10 Concentration −6.0): 69%
- Mean Optical Densities ([3]; Log10 Concentration −7.0): 1.958
- Percent Growth ([3]; Log10 Concentration −7.0): 88%
- Mean Optical Densities ([3]; Log10 Concentration −8.0): 1.995
- Percent Growth ([3]; Log10 Concentration −8.0): 91%
- TGI [4]: 5.75E−06
- Mean Optical Densities ([4]; Log10 Concentration −4.0): 0.433
- Mean Optical Densities ([4]; Log10 Concentration −5.0): 0.660
- Percent Growth ([4]; Log10 Concentration −5.0): −30%
- Mean Optical Densities ([4]; Log10 Concentration −6.0): 2.201
- Percent Growth ([4]; Log10 Concentration −6.0): 95%
- Mean Optical Densities ([4]; Log10 Concentration −7.0): 2.598
- Percent Growth ([4]; Log10 Concentration −7.0): 126%
- Mean Optical Densities ([4]; Log10 Concentration −8.0): 2.230
- Percent Growth ([4]; Log10 Concentration −8.0): 98%
- TGI [5]: 3.15E−06
- Mean Optical Densities ([5]; Log10 Concentration −4.0): 0.364
- Mean Optical Densities ([5]; Log10 Concentration −5.0): 0.137
- Percent Growth ([5]; Log10 Concentration −5.0): −80%
- Mean Optical Densities ([5]; Log10 Concentration −6.0): 1.407
- Percent Growth ([5]; Log10 Concentration −6.0): 79%
- Mean Optical Densities ([5]; Log10 Concentration −7.0): 1.546
- Percent Growth ([5]; Log10 Concentration −7.0): 94%
- Mean Optical Densities ([5]; Log10 Concentration −8.0): 1.649
- Percent Growth ([5]; Log10 Concentration −8.0): 105%
- TGI [6]: 2.96E−06
- Mean Optical Densities ([6]; Log10 Concentration −4.0): 0.302
- Mean Optical Densities ([6]; Log10 Concentration −5.0): 0.083
- Percent Growth ([6]; Log10 Concentration −5.0): −79%
- Mean Optical Densities ([6]; Log10 Concentration −6.0): 1.262
- Percent Growth ([6]; Log10 Concentration −6.0): 71%
- Mean Optical Densities ([6]; Log10 Concentration −7.0): 1.597
- Percent Growth ([6]; Log10 Concentration −7.0): 98%
- Mean Optical Densities ([6]; Log10 Concentration −8.0): 1.514
- Percent Growth ([6]; Log10 Concentration −8.0): 91%
- TGI [7]: 2.72E−06
- Mean Optical Densities ([7]; Log10 Concentration −4.0): 0.255
- Mean Optical Densities ([7]; Log10 Concentration −5.0): 0.196
- Mean Optical Densities ([7]; Log10 Concentration −6.0): 0.982
- Mean Optical Densities ([7]; Log10 Concentration −7.0): 1.541
- Mean Optical Densities ([7]; Log10 Concentration −8.0): 1.566
- TGI [8]: 2.64E−06
- Mean Optical Densities ([8]; Log10 Concentration −4.0): 0.159
- Mean Optical Densities ([8]; Log10 Concentration −5.0): 0.075
- Percent Growth ([8]; Log10 Concentration −5.0): −65%
- Mean Optical Densities ([8]; Log10 Concentration −6.0): 0.801
- Percent Growth ([8]; Log10 Concentration −6.0): 47%
- Mean Optical Densities ([8]; Log10 Concentration −7.0): 1.299
- Percent Growth ([8]; Log10 Concentration −7.0): 88%
- Percent Growth ([8]; Log10 Concentration −8.0): 92%
